Assay results: paper PMC8495455, “Discovery of a transdermally deliverable pentapeptide for activating AdipoR1 to promote hair growth” (EMBO Molecular Medicine, 2021)

Columns and labels:
[1] = Transdermal delivery in ex vivo human skin tissue culture, qualitative MS of dermal lysate; format: in vitro ADME; conditions: 50 mM in DMSO placed daily, 5 days, 37°C, dermal lysate in 50% methanol
Source text: Next, we checked whether topically applied P5 can be delivered into human skin using ex vivo skin tissue culture model (Fig EV4A) (Haslam et al, [2018]). After topical application of vehicle or P5 on the ex vivo skin tissue, the dermal lysate of each tissue was examined by the qualitative mass spectrometry (MS). […] To trace the origin of P5, we used isotope‐marked P5 (P5*), in which carbon (^12C) atoms of Gly were substituted with isotope carbon atoms (^13C) increasing the molecular weight by 2 compared to that of original P5 (Fig EV4B). […] Collectively, P5 can be transdermally delivered into human skin.
Topical application of peptides on ex vivo skin study was performed as described previously (Haslam et al, [2018]). Briefly, full thickness skin tissue from cadavers within 48 h after death was acquired and biopsied using a 6 mm punch. The skin tissue was acclimatized in supplemented Williams’ E media with L‐glutamine (2 mM), penicillin‐streptomycin solution (1×), hydrocortisone (10 ng/ml), and insulin (100 ng/ml) overnight at 37°C in a 5% CO2 atmosphere. After acclimatization, the skin tissue was carefully pulled through a cell strainer with the epidermis exposed to the air, leaving the dermis submerged in the culture media. […] The lysate was qualitatively analyzed by a MS system (API 4000 Q‐trap; AB SCIEX).

[2] = tested on: AMPK phosphorylation in ORS cells; experiment: Western blot p-AMPK, ORS cells; format: cell-based, human; conditions: P5 0 - 50 μM, APN 2.5 μg/ml
Source text: Following the confirmation of the molecular interaction between AdipoR1 and P5, we evaluated the activation of the intracellular signaling pathway by P5. We investigated whether APN treatment on ORS and DP cells could activate AMPK or ERK signaling pathways, which are previously known to be downstream effectors of AdipoR1 (Mao et al, [2006]; Deepa & Dong, [2009]; Shibata et al, [2012]). […] Next, for determination of whether both P5 and APN mediates the phosphorylation of AMPK through AdipoR1 in ORS and DP cells, the cells were transfected with AdipoR1 siRNA (Appendix Fig S1). […] Collectively, P5 activates AMPK signaling pathway through AdipoR1 in ORS and DP cells in vitro.
Human ORS and DP cells or skin tissue were lysed (RIPA lysis buffer; #20‐188; Merck Millipore). The obtained protein was then separated by 8% SDS–PAGE and transferred to a polyvinylidene fluoride membrane (Amersham). The protein transferred membranes were incubated overnight with the specific antibodies. […] Antibody‐antigen complexes detected by enhanced chemiluminescent substrate (Thermo Fisher) were captured and quantified by Amersham imager 680 systems (GE Healthcare).

human scalp HFs = experiment: Ex vivo human HF organ culture, hair shaft elongation; format: cell-based; conditions: 6 days, vs vehicle
Protocol: We next investigated whether P5 can reproduce the effects of APN on hair growth promotion ex vivo (Won et al, [2012]) using ex vivo human HF organ culture model. […] The Ki‐67‐positive cell portion of the matrix area in the P5‐treated HFs was higher than that in the vehicle‐treated group (Fig 3E).
The microdissected full‐length scalp HFs in anagen VI were cut at the level of sebaceous duct and then ex vivo cultured for 6 days at 37°C in a 5% CO2 atmosphere in Williams E medium (#12551032, Gibco) supplemented with hydrocortisone (10 ng/ml), insulin (10 µg/ml), L‐glutamine (2 mM), and penicillin‐streptomycin solution (1×). To avoid any potential bias in the length measurement from pseudo‐catagen progression, the total length of pigmented hair shaft of each HF was measured every three days to calculate the net length of elongated hair shaft and photographed in culture day 6 using a stereomicroscope (Olympus).

IGF-1 mRNA = experiment: qRT-PCR growth factor gene expression in DP cells, IGF-1; format: cell-based, human; conditions: for mRNA_IGF1: DP cells
Source text: Next, we investigated the downstream effects of P5 on hair growth factor genes and proteins in DP cells. […] We tested whether P5 can also increase the mRNA levels and proteins of hair growth factors in DP cells: IGF‐1, VEGF, HGF, platelet‐derived growth factor alpha (PDGFA), and fibroblast growth factor (FGF) 7, which are known to induce or maintain the anagen phase of the hair cycle (Jindo et al, [1994]; Philpott et al, [1994]; Yano et al, [2001]; Jang, [2005]; Tomita et al, [2006]; Iino et al, [2007]).
Total RNA was isolated from P5‐treated DP cells using RNAiso Plus (#9109; TaKaRa). We used the total RNA (1 µg) for cDNA synthesis using a RevertAid First Strand cDNA Synthesis Kit (Thermo Fisher) according to the manufacturer's instructions. The mRNA expression levels were quantified on a 7500 Real‐time PCR System (Thermo Fisher) using TB Green Premix Ex Taq (TaKaRa Bio): human IGF‐1, VEGF, HGF, PDGFA, FGF7, and glyceraldehyde 3‐phosphate dehydrogenase (GAPDH) (Appendix Table S2). The relative expression levels of each gene were determined by the 2^‐ΔΔCT method.

GLYYF [P5, GST-fused (GST-P5) in pulldown assays]
Detection in skin dermis after topical application (transdermal delivery) [1]: qualitatively detected | Phosphorylation of AMPK, ORS cells [2]: concentration‐dependent phosphorylation of AMPK | Hair shaft growth ex vivo (human scalp HFs): significantly promoted hair shaft growth ex vivo | mRNA_IGF1 (IGF-1 mRNA; P5 5μM, relative to Control = 1, replicate 1): 1.775 | mRNA_IGF1 (IGF-1 mRNA; P5 5μM, relative to Control = 1, replicate 2): 0.9141 | mRNA_IGF1 (IGF-1 mRNA; P5 5μM, relative to Control = 1, replicate 3): 1.9981 | mRNA_IGF1 (IGF-1 mRNA; P5 5μM, relative to Control = 1, replicate 4): 0.5956 | mRNA_IGF1 (IGF-1 mRNA; P5 5μM, relative to Control = 1, replicate 5): 0.9696 | mRNA_IGF1 (IGF-1 mRNA; P5 25μM, relative to Control = 1, replicate 1): 4.048 | mRNA_IGF1 (IGF-1 mRNA; P5 25μM, relative to Control = 1, replicate 2): 1.581 | mRNA_IGF1 (IGF-1 mRNA; P5 25μM, relative to Control = 1, replicate 3): 3.012 | mRNA_IGF1 (IGF-1 mRNA; P5 25μM, relative to Control = 1, replicate 4): 4.414 | mRNA_IGF1 (IGF-1 mRNA; P5 25μM, relative to Control = 1, replicate 5): 1.2502 | IGF-1 mRNA expression (IGF-1 mRNA; P5-treated DP cells, n = 5): significantly increased
